Measurements reported in PMC10075506, “Synthesis and biological evaluation of flavonoid-based IP6K2 inhibitors” (Journal of Enzyme Inhibition and Medicinal Chemistry, 2023).
Where two headings read alike, the source gives them in different places. One block for each compound: values may come before it.

Assays:
in vitro = details: PAMPA
Text: Supporting Information Table 1.
artificial membrane permeability assay (PAMPA) as described previously (reference). The apparent permeability
(ranitidine, nadolol, hydrochlorothiazide).
Data are mean ± S.D. (n=3).
Reference: Oh, M.H., Lee, H.J., Jo, S.H., et al. Development of Cassette PAMPA for Permeability Screening. Biol Pharm

recombinant human IP6K2 = target: T1, recombinant human IP6K2 (Homo sapiens, UniProt Q9UHH9); test: ADP-Glo kinase assay, IP6K2; assay type: biochemical; details: for fold more potent IP6K2 inhibition than quercetin: IC50 compared with quercetin
T1 construct: made in house; host or cells: Sf9 insect cells (baculovirus, pFASTBAC1)
T1 sequence (Q9UHH9 1-426): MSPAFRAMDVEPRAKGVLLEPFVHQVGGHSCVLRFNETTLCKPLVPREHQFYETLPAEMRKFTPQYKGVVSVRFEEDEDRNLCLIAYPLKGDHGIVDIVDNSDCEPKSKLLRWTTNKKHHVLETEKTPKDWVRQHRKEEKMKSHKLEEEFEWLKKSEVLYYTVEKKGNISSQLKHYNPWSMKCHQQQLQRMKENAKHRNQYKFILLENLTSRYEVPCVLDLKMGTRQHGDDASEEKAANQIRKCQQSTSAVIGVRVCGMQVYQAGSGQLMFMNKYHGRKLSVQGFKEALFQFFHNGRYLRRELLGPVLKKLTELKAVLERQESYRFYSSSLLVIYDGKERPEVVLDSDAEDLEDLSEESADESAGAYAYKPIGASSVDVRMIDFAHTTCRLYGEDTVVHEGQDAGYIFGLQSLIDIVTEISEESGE
Method: (§1) Inhibition activity of the synthesised compounds against IP6K2 was assessed using ADP-Glo™ Kinase Assay (Promega). Kinase reaction mixtures were first shaking-incubated with individual drugs (diluted in DMSO) for pre-incubation at RT for 15 min, and then ATP was added (final 10 µM) to initiate the reaction. 20 ng of recombinant human IP6K2 protein was used per 15 µL of IP6K2 reaction mixture (50 mM Tris-HCl, pH 6.8, 10 mM MgCl2, 2.5 mM DTT, 0.02% Triton X-100, 10 µM IP6). […] Each detection set was prepared on 96-well (25 µL kinase reaction) as duplicates. Resulting enzyme activity was calculated as following; Activity (%) = ([ADPexperimental]/[ADPDMSO])×100. For IC50 estimation of compounds, kinase assay was prepared on 384-well plates (20 ng of recombinant human IP6K2 protein was used per 5 µL kinase reaction mixture) as duplicates. The final concentrations for IP6K2, IP6, and ATP were 80 nM, 10 μM, and 10 μM, respectively. […] IP6K1 and IP6K3 assays were performed by Liao et al.’s conditions.[25] The final concentrations for IP6K1, IP6, and ATP were 60 nM, 100 μM, and 1 mM, respectively. […] All statistical analyses including IC50 estimation was performed using Prism 7 or Prism 9 (Graphpad Software).
(§2) Full-length human IP6K1, IP6K2, or IP6K3 cDNA was subcloned into pFASTBAC1 plasmid (Gibco) with an N-terminal FLAG epitope sequence, and baculovirus was generated according to the manufacturer’s instructions. Sf9 insect cells were infected with baculovirus and incubated for 72 h. The cells were resuspended in lysis buffer [20 mM Tris–HCl (pH 7.9), 500 mM NaCl, 4 mM MgCl2, 0.4 mM EDTA, 2 mM DTT, 20% glycerol, 1 mM PMSF, and protease inhibitor cocktail (Roche)] and then disrupted with a Dounce homogeniser (pestle A, 3 series of 10 strokes with 10 min interval).

human IP6K3 = target: T2, human IP6K3 (Homo sapiens, UniProt Q96PC2); test: ADP-Glo kinase assay, IP6K3 (Liao et al.'s conditions); assay type: biochemical; details: for IC50: IP6K3 120 nM, ATP 1 mM
T2 construct: made in house; host or cells: Sf9 insect cells (baculovirus, pFASTBAC1)
Method: as §1, §2

human IP6K1 = target: T3, human IP6K1 (Homo sapiens, UniProt Q92551); test: ADP-Glo kinase assay, IP6K1 (Liao et al.'s conditions); assay type: biochemical; details: for IC50: IP6K1 60 nM, ATP 1 mM
T3 construct: made in house; host or cells: Sf9 insect cells (baculovirus, pFASTBAC1)
Method: as §1, §2

[1] = test system: IP7 synthesis in human colorectal cell line (HCT116); test: cellular IP7 synthesis in HCT116, HPLC of [3H]inositol-labelled inositol phosphates; assay type: cell-based; details: HCT116, compound 10 μM for 6 h
Method: For HPLC analysis, 2 × 10^5 cells/60 mm dish of HCT116 were treated with 60 μCi [^3H] myo-inositol (NET1177001MC, PerkinElmer). After 3 days, soluble inositol polyphosphates from HCT116 (human colorectal cancer cell line) were extracted and analysed as previously described.[39] Intracellular inositol phosphates were extracted with acid extraction buffer (1M HClO4, 3 mM EDTA, and 0.1 mg/mL IP6), and neutralised with neutralisation buffer (1M K2CO3 and 3 mM EDTA). The lysates were centrifuged for 10 min, and the soluble fraction was resolved by HPLC as described earlier.[39] The lipid pellet was lysed with 0.1% Triton X-100 in NaOH overnight. […] Quantity of inositol phosphates was presented as total counts/min (CPM) normalised by total lipid contents.

hIP6K2 = details: read-out: IC50 value of quercetin (IP6K2), reported; different IP6K2 enzyme concentration and reaction temperature; cited from earlier work
[2] = Table 1, IP6K2 80 nM, IP6 10 μM, ATP 10 μM, read-out: IP6K2 IC50
[3] = Table 2, duplicates, 0.017 to 100 µM, mean ± SD, IP6K2 80 nM, IP6 10 μM, ATP 10 μM, read-out: IP6K2 IC50
[4] = final concentration of ATP and IP6 adjusted to 10 μM

T2 sequence (Q96PC2 whole entry): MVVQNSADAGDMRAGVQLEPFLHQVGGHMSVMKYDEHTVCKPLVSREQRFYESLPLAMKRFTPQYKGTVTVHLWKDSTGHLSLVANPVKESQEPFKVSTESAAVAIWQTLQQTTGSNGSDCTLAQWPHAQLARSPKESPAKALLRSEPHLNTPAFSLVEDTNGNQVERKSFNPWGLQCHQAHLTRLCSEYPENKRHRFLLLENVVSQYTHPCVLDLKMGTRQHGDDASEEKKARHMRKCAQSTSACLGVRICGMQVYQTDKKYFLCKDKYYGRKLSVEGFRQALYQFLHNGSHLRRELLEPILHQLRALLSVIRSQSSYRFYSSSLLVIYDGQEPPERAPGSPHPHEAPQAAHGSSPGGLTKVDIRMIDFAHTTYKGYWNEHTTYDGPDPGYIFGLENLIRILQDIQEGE
T3 sequence (Q92551 whole entry): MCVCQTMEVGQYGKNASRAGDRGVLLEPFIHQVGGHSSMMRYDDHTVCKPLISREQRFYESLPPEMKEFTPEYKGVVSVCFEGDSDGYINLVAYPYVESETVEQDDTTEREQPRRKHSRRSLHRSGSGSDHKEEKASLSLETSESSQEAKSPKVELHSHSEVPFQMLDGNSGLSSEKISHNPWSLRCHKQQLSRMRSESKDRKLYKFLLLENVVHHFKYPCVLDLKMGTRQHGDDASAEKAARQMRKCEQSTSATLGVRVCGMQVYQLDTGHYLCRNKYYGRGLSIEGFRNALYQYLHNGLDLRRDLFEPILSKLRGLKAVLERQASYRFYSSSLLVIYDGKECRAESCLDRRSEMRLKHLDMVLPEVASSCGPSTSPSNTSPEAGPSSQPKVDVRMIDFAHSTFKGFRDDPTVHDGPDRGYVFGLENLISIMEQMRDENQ

melting point: 310 to 312 °C
SMILES: O=c1cc(-c2ccc(O)cc2)oc2cc(F)ccc12

melting point: 292 to 294 °C
SMILES: O=c1cc(-c2ccc(O)cc2)oc2ccc(F)cc12

melting point: 272 to 274 °C
SMILES: O=c1cc(-c2ccc(O)cc2)oc2cccc(F)c12

melting point: 302 to 304 °C
SMILES: O=c1cc(-c2ccc(O)cc2)oc2cc(F)c(F)cc12

melting point: 272 to 274 °C
SMILES: O=C(O)c1cccc(-c2cc(=O)c3cc(F)c(F)cc3o2)c1

melting point: 228 to 230 °C
SMILES: O=c1cc(-c2ccc(O)cc2)oc2cc(F)cc(F)c12

melting point: 96 to 98 °C
SMILES: O=c1cc(-c2ccccc2)oc2cc(F)ccc12

melting point: 228 to 230 °C
SMILES: COc1ccc(-c2cc(=O)c3ccc(F)cc3o2)cc1

melting point: 160 to 162 °C
SMILES: COc1ccc(-c2cc(=O)c3cc(F)ccc3o2)cc1

melting point: 144 to 146 °C
SMILES: O=c1cc(-c2ccccc2)oc2cccc(F)c12

melting point: 178 to 180 °C
SMILES: COc1ccc(-c2cc(=O)c3c(F)cccc3o2)cc1

melting point: 200 to 202 °C
SMILES: COc1ccc(-c2cc(=O)c3cc(F)c(F)cc3o2)cc1

melting point: 256 to 258 °C
SMILES: COc1ccc(-c2cc(=O)c3c(F)cc(F)cc3o2)cc1

SMILES: O=C(N[C@H](CO)[C@H](O)c1ccc([N+](=O)[O-])cc1)C(Cl)Cl [Chloramphenicol, chloramphenicol]
Papp (in vitro): 4.67 ± 0.063 ×10⁻⁶ cm/s
Permeability class (in vitro): High

SMILES: O=C(O)c1cccc(-c2cc(=O)c3cc(O)c(O)cc3o2)c1 [Compound 16b, 3–(6,7-Dihydroxy-4-oxo-4H-chromen-2-yl)benzoic acid]
IC50 (recombinant human IP6K2; [2]): 1670 nM
melting point: 416 to 418 °C

SMILES: O=C(O)c1ccc(-c2cc(=O)c3c(O)cc(O)cc3o2)cc1 [Compound 16c, 4–(5,7-Dihydroxy-4-oxo-4H-chromen-2-yl)benzoic acid]
IC50 (recombinant human IP6K2; [2]): 41900 nM
melting point: 337 to 339 °C

SMILES: O=c1c(O)c(-c2cccc(O)c2)oc2cc(O)c(O)cc12 [Compound 20q, 3,6,7-Trihydroxy-2–(3-hydroxyphenyl)-4H-chromen-4-one]
IC50 (recombinant human IP6K2; [3]): 2960 ± 190 nM

SMILES: O=C(O)c1ccc(-c2oc3cc(O)c(O)cc3c(=O)c2O)cc1 [Compound 20r, 4–(3,6,7-Trihydroxy-4-oxo-4H-chromen-2-yl)benzoic acid]
IC50 (recombinant human IP6K2; [3]): 3930 ± 30 nM

SMILES: O=C(O)c1cccc(-c2oc3cc(O)c(O)cc3c(=O)c2O)c1 [Compound 20s, 3–(3,6,7-Trihydroxy-4-oxo-4H-chromen-2-yl)benzoic acid]
Papp (in vitro): < 0.18 ×10⁻⁶ cm/s
Permeability class (in vitro): Low
IC50 (human IP6K3; IP6 100 µM): 3560 nM
IP6K3 /IP6K2 (IC50 ratio) (human IP6K3; IP6K3 at ATP 1 mM, IP6 100 µM, IP6K2 at ATP 10 µM, IP6 10 µM): 6.47
IC50 ratio of IP6K3/IP6K2 (human IP6K3; [4]): 2.32 fold
IC50 (recombinant human IP6K2): 550 ± 1 nM
fold more potent IP6K2 inhibition than quercetin (recombinant human IP6K2): 5 fold
fold more potent than compound 20r (IP6K2) (recombinant human IP6K2; meta -COOH versus para -COOH): approximately 7 fold
IC50 (human IP6K1; IP6 100 µM): 2870 nM
IP6K1 /IP6K2 (IC50 ratio) (human IP6K1; IP6K1 at ATP 1 mM, IP6 100 µM, IP6K2 at ATP 10 µM, IP6 10 µM): 5.22
IC50 ratio of IP6K1/IP6K2 (human IP6K1; [4]): 4.65 fold
cellular IP7 levels [1]: failed to reduce cellular IP7 levels

SMILES: O=c1c(O)c(-c2ccc3ccccc3c2)oc2cc(O)c(O)cc12 [Compound 23a, 3,6,7-Trihydroxy-2-(naphthalen-2-yl)-4H-chromen-4-one]
IC50 (recombinant human IP6K2; [3]): 97800 ± 1700 nM

SMILES: Cn1cc(-c2oc3cc(O)c(O)cc3c(=O)c2O)cn1 [Compound 23b, 3,6,7-Trihydroxy-2–(1-methyl-1H-pyrazol-4-yl)-4H-chromen-4-one]
fold more potent IP6K2 inhibition than quercetin (recombinant human IP6K2): 2 fold
IC50 (recombinant human IP6K2; [3]): 1790 ± 400 nM

SMILES: O=c1c(O)c(-c2cccs2)oc2cc(O)c(O)cc12 [Compound 23c, 3,6,7-Trihydroxy-2-(thiophen-2-yl)-4H-chromen-4-one]
IC50 (recombinant human IP6K2; [3]): 73300 ± 12800 nM

Papp (in vitro): < 0.18 ×10⁻⁶ cm/s
Permeability class (in vitro): Low
SMILES: NS(=O)(=O)c1cc2c(cc1Cl)NCNS2(=O)=O [Hydrochlorothiazide, hydrochlorothiazide]

Papp (in vitro): 3.45 ± 0.158 ×10⁻⁶ cm/s
Permeability class (in vitro): High
SMILES: COCCc1ccc(OCC(O)CNC(C)C)cc1 (centres unmarked) [Metoprolol, metoprolol]

Papp (in vitro): 0.089 ± 0.007 ×10⁻⁶ cm/s
Permeability class (in vitro): Low
SMILES: CC(C)(C)NCC(O)COc1cccc2c1CC(O)C(O)C2 (centres unmarked) [Nadolol, nadolol]

SMILES: O=c1c(O)c(-c2ccc(O)c(O)c2)oc2cc(O)cc(O)c12 [Quercetin, 3,3′,4′,5,7-pentahydroxylflavone]
Papp (in vitro): 0.54 ×10⁻⁶ cm/s
Permeability class (in vitro): Low
IC50 (human IP6K3; IP6 100 µM): 4350 nM
IC50 (human IP6K1; IP6 100 µM): 1100 nM

SMILES: CNC(=C[N+](=O)[O-])NCCSCc1ccc(CN(C)C)o1 [Ranitidine, ranitidine]
Papp (in vitro): < 0.18 ×10⁻⁶ cm/s
Permeability class (in vitro): Low
